Legend:
eNOS-pThr495 = eNOS-pThr495 protein levels in HAECs; type: cell-based, human; settings: for eNOS-pThr497/495 levels increase: HAECs, DL-Hcy 500 μmol/L or D-Glu 25 mmol/L
Protocol: (FIG. 7A). eNOS protein levels in mouse aorta of Cbs^−/+ mice (Left Panel) and HAECs (Right Panel). (FIG. 7B). eNOS-pThr497/495 protein levels in mouse aorta of Cbs^−/+ mice (Left Panel) and in HAECs (Right Panel). At the age of 8-week, Cbs^−/+ mice were fed with a high methionine diet (HM, methionine: 2% w/w) for 8 weeks, and/or injected with streptozotocin (STZ, i.p., 40 mg/kg) for 5 consecutive days starting from the first day of experiment. Mice fed with a control diet (CT, methionine: 0.37% w/w) and injected with vehicle (50 mmol/L citrate buffer) served as controls. Human aortic endothelial cells (HAECs, passage 8-9) were cultured in EC medium which contains 5 mmol/L D-glucose (D-Glu), treated with DL-homocysteine (DL-Hcy, 500 μmol/L) and/or D-Glu (25 mmol/L). (FIG. 7C). eNOS-pThr495 protein levels in HAECs. HAECs (passage 8-9) were cultured in EC medium which contains 5 mmol/L D-glucose (D-Glu), treated with DL-homocysteine (DL-Hcy, 500 μmol/L) and D-Glu (25 mmol/L for 48 hrs with or without non-specific PKC inhibitor GF109203X (GFX) (2 μmol/L, 30 min.); control adenoviruse (Ad-CT, 200 MOI, 72 hrs), dominant negative PKCβ2 adenovirus (Adv-dnPKCβ2, 200 MOI, 72 hrs); μ-calpain siRNA (μ-calpsiRNA, Santa Cruz #sc-29885, 72 hrs), or MDL ([…], 48 hrs, Sigma #M6690). (FIG. 7D). Transfection effect of Adv-dnPKCβ2in HAECs. Cultured HAECs (passage 8, 80% confluence) were treated with 12.5, 25, 50, 100 and 200 MOI Adv-dnPKCβ2 for 48 hrs. n=3, *p<0.05 vs control; †p<0.05 vs DL-Hcy-treated HAECs; ‡p<0.05 vs D-Glu-treated HAECs; #p<0.05 vs DL-Hcy/D-Glu-treated HAECs. Cbs, cystathionine β-synthase; eNOS, endothelial nitric oxide synthase; eNOS-pThr495/497, phosphorylation of eNOS at threonine 497 (mouse)/495 (human).
Human aortic endothelial cells (HAECs) were cultured in cell culture medium (M199, HyClone) as previously described (Wang et al., 1997, J Biol Chem 272:25380-25385). The HAECs were treated with DL-Hcy (200 or 500 μmol/L) and/or D-glucose (D-Glu, 25 mmol/L) for 24 or 48 hrs in the presence or absence of selected pharmacological inhibitors or siRNA or adenovirus.

calpain = assay: t-BOC calpain activity assay in intact HAECs; type: cell-based, human; settings: HAECs; DL-Hcy 500 μmol/L and/or D-Glu 25 mmol/L for 48 hrs
Protocol: (FIG. 5A). In situ .O2^− production in aorta. (FIG. 5B). Nitrotyrosine (3-NT) levels. Aortic paraffin-cross sections (7 μm) from Cbs^−/+ mice were stained with 3-NT antibody and 3,3′-diaminobenzidine (DAB, brown). (FIG. 5C). Urinary 8-isoprostane levels. At the age of 8-week, Cbs^+/+ and Cbs^−/+ mice were fed with a high methionine diet (HM, methionine: 2% w/w) for 8 weeks, and/or injected with streptozotocin (STZ, i.p., 40 mg/kg) for 5 consecutive days starting from the first day of experiment. Mice fed with a control diet (CT, methionine: 0.37% w/w) and injected with vehicle (50 mM citrate buffer) served as controls. Aortic cryo-cross sections (30 μm) from Cbs^−/+ mice were stained with the superoxide marker dihydroethidium (DHE, 3 μmol/L, 30 mins.). Urine was collected from 24 hrs metabolic cage. (FIG. 5D). Endothelium-dependent vascular relaxation in HHcy/HG CBS^−/+ mouse aorta in the presence of antioxidants. Arterial rings were pre-contracted with phenylephrine (1 μmol/L) and examined for relaxation to cumulative additions of ACh in the aorta of STZ-treated Cbs^−/+ mice on HM diet. The arterial rings were preincubated with antioxidants polyethylene glycol superoxide dismutase (PEG-SOD, 150 U/mL, Sigma #S9549), Tempol (1 mmol/L, Sigma #176141), or apocynin (10 μmol/L, Sigma #W508454) for 1 hr. n=3-5. *p<0.05 vs vehicle-treated Cbs^−/+ mice on CT diet; †p<0.05 vs vehicle-treated Cbs^−/+ mice on HM diet; ‡p<0.05 vs STZ-treated Cbs^−/+ mice on CT diet; #p<0.05 vs STZ-treated Cbs^−/+ mice on HM diet. (FIG. 5E). […] Calpain activity was measured by the fluorescent substrate t-BOC-Leu-Met-CMAC (T-BOC, 10 μmol/L, 30 min) Human aortic endothelial cells (HAECs, passage 8-9) were cultured in EC medium which contains 5 mmol/L D-glucose (D-Glu), treated with DL-homocysteine (DL-Hcy, 500 μmol/L) and/or D-Glu (25 mmol/L) with or without […] (150 U/mL) or MDL28170 (MDL, 20 μmol/L) for 48 hrs, or CTsiRNA and μ-calpsiRNA for 72 hrs. […] Transfection effect of μ-calpsiRNA in HAECs was detected by Western blot after transfected with the siRNA for indicated time. […]

eNOS = eNOS protein levels in HAECs; type: cell-based, human
Protocol: (FIG. 7A). eNOS protein levels in mouse aorta of Cbs^−/+ mice (Left Panel) and HAECs (Right Panel). (FIG. 7B). eNOS-pThr497/495 protein levels in mouse aorta of Cbs^−/+ mice (Left Panel) and in HAECs (Right Panel). At the age of 8-week, Cbs^−/+ mice were fed with a high methionine diet (HM, methionine: 2% w/w) for 8 weeks, and/or injected with streptozotocin (STZ, i.p., 40 mg/kg) for 5 consecutive days starting from the first day of experiment. Mice fed with a control diet (CT, methionine: 0.37% w/w) and injected with vehicle (50 mmol/L citrate buffer) served as controls. Human aortic endothelial cells (HAECs, passage 8-9) were cultured in EC medium which contains 5 mmol/L D-glucose (D-Glu), treated with DL-homocysteine (DL-Hcy, 500 μmol/L) and/or D-Glu (25 mmol/L). (FIG. 7C). eNOS-pThr495 protein levels in HAECs. […]

mouse thoracic aorta = assay: Endothelium-dependent vascular relaxation to ACh in aortic rings treated ex vivo (multiple-wire myograph); settings: aortic rings of HHcy/HG-Cbs−/+ mice preincubated with calpain inhibitor 20 μmol/L for 1 hour; p<0.05

Molecule | eNOS-pThr497/495 levels increase (eNOS-pThr495) | calpain activity increase (calpain) | decrease of eNOS protein levels (eNOS; DL-Hcy 500 μmol/L, 48 hrs) | effect on eNOS protein levels (eNOS; D-Glu 25 mmol/L, in the presence or absence of DL-Hcy) | HHcy/HG-induced eNOS-pThr495 (eNOS-pThr495; HAECs with DL-Hcy 500 μmol/L and D-Glu 25 mmol/L 48 hrs, GFX 2 μmol/L 30 min, MDL 20 mmol/L 48 hrs, Adv-dnPKCβ2 200 MOI 72 hrs, siRNA 72 hrs) | aortic endothelium-dependent vascular relaxation to ACh (mouse thoracic aorta)
NC(CCS)C(=O)O (racemic) [DL-Hcy, DL-homocysteine] | 1.6 fold | 1.8 fold | 59% | – | – | –
O=C[C@H](O)[C@@H](O)[C@H](O)[C@H](O)CO [D-Glu, D-glucose] | 1.5 fold | 2.3 fold | – | no effect | – | –
MDL28170 | – | – | – | – | completely rescued | markedly improved

Reference: US20160089391A1, “Molecular Targets for Cardiovascular Disease” (Temple University-of the Commonwealth System of Higher …, priority 2014, published 2016)
